According to patent US20230023092A1, “TREATMENT OF DEPRESSION AND OTHER VARIOUS DISORDERS WITH PSILOCYBIN” (COMPASS […], priority 2019, published 2023):

System: healthy subjects
Experiment: Social Value Orientation (SVO)
Assay type: in vivo, human
Text: In some embodiments, the Social Value Orientation (SVO) test is utilized to evaluate the safety and/or efficacy of psilocybin. The SVO Slider Measure has 6 primary items with 9 secondary (and optional) items. All of the items have the same general form. Each item is a resource allocation choice over a well-defined continuum of joint payoffs.
The Pictorial Empathy Test (PET), Reading the Mind in the Eyes Test (RMET), Scale of Social Responsibility (SSR), Social Value Orientation (SVO), and Toronto Empathy Questionnaire (TEQ) were performed. Table 20 summarizes the results of the mixed model for repeated measures (MMRM) analysis for each of the aforementioned social cognition panel scales measured on Day 7 and Day 84 after study drug administration.

[1] = Day 7, psilocybin 10 mg - placebo
[2] = Day 7, psilocybin 25 mg - 10 mg
[3] = Day 7, psilocybin 25 mg - placebo
[4] = Day 84, psilocybin 10 mg - placebo
[5] = Day 84, psilocybin 25 mg - 10 mg
[6] = Day 84, psilocybin 25 mg - placebo

CN(C)CCc1c[nH]c2cccc(OP(=O)(O)O)c12 [Psilocybin, psilocybin]
SVO angle change from baseline (LS mean) (Day 7, psilocybin 10 mg): 1.8 | SVO type change from baseline (LS mean) (Day 7, psilocybin 10 mg): 0.1 | SVO angle change from baseline, LS mean difference [1]: 3.4 | SVO type change from baseline, LS mean difference [1]: 0.1 | SVO angle change from baseline (LS mean) (Day 7, psilocybin 25 mg): 0.5 | SVO type change from baseline (LS mean) (Day 7, psilocybin 25 mg): 0.1 | SVO angle change from baseline, LS mean difference [2]: −1.3 | SVO type change from baseline, LS mean difference [2]: −0.0 | SVO angle change from baseline, LS mean difference [3]: 2.1 | SVO type change from baseline, LS mean difference [3]: 0.1 | SVO angle change from baseline (LS mean) (Day 84, psilocybin 10 mg): 0.1 | SVO type change from baseline (LS mean) (Day 84, psilocybin 10 mg): 0.1 | SVO angle change from baseline, LS mean difference [4]: 3.4 | SVO type change from baseline, LS mean difference [4]: 0.1 | SVO angle change from baseline (LS mean) (Day 84, psilocybin 25 mg): −0.9 | SVO type change from baseline (LS mean) (Day 84, psilocybin 25 mg): 0.0 | SVO angle change from baseline, LS mean difference [5]: −1.0 | SVO type change from baseline, LS mean difference [5]: −0.0 | SVO angle change from baseline, LS mean difference [6]: 2.4 | SVO type change from baseline, LS mean difference [6]: 0.1
